For data set [1], the system named is Vero cells. Kind of data set: Cytotoxicity, tetrazolium salts-based assay (WST-1), Vero cells. The data set is classed as cell-based, African green monkeys (Chlorocebus sp.). The conditions noted are these: all conditions tested (3.13, 12.5, 50 μM). In general terms: Tetrazolium dyes change colour on reduction, which living cells bring about.
Data set [2] has as its system SARS-CoV-2. Kind of data set: Post-infection treatment, viral plaque assay, Calu-3 cells. The conditions noted are these: Severe acute respiratory syndrome coronavirus 2, Calu-3, 12.5 μM, 48 hours after drug treatment. The data set is classed as cell-based, SARS-CoV-2 (a Korean isolate). The procedure: In Experimental Example 6, pyronaridine tetraphosphate or artesunate was treated each in Calu-3 cells at 0, 2, 4, 6, 8, 10, 12, 24 and 36 hours after SARS-CoV-2 (a Korean isolate) inoculation, and evaluated how long hours the inhibitory effect of each drug were retained against virus infections.
Calu-3 cells and viruses were prepared in the same manner as shown in Experimental Example 5.
After dissolving pyronaridine tetraphosphate and artesunate in DMSO each, it was diluted to 12.5 μM using media. At 1 hour after the inoculation with SARS-CoV-2 (MOI=0.1), the supernatant was removed, and Calu-3 cells were washed, followed by the addition of DMEM culture media containing 2% bovine serum. The culture media containing drugs were added at 0, 2, 4, 6, 8, 10, 12, 24 and 36 hours each. At 48 hours after each drug treatment, cell supernatants were harvested and a plaque assay—in which the plaques generated by infectious virus infection were counted in Vero cells, cells used for virus amplification—was performed. The DMEM-F12 medium layer containing 2% agarose was laid on the layer of infected Vero cells, and the number of plaques was counted by using counter-staining with crystal violet, after incubation for 72 hours.

The subject of data set [3] is Ebola virus. The conditions noted are these: in vitro assays; cited from earlier work.
Data set [4] can be described thus: Cytotoxicity (WST-1), Calu-3 cells. Conditions: human.
The subject of data set [5] is SARS-CoV-2. Kind of data set: Antiviral efficacy by RNA copy numbers (qRT-PCR, RdRp gene), co-treatment, Vero cells.
In data set [6] the test system is SARS-CoV-2. Kind of data set: Antiviral efficacy by RNA copy numbers (qRT-PCR), co-treatment, Calu-3 human lung cell line. The conditions noted are these: Calu-3 cells; for selectivity index, SI / IC50: 48 hours post-infection; for IC50: co-treatment. For orientation: Real-time PCR tracks product formation cycle by cycle.
Data set [7] relates to Ebola virus. The conditions noted are these: guinea pig models infected with Ebola virus; cited from earlier work.
Data set [8] has as its system SARS-CoV-2. The data set is described as follows: In vivo antiviral efficacy in SARS-CoV-2-infected hamsters, lung virus titer by plaque assay. Further details: species or system Syrian hamsters. The conditions noted are these: 360 mg/kg alone, oral, once at 25 hours post-infection, 4-day post-infection; vehicle control 8.30.
Data set [9] deals with Vero cells. The conditions noted are these: African green monkey (Chlorocebus sp.).
Data set [10] has as its system Ebola virus. The conditions noted are these: Hela cells; cited from earlier work.
Data set [11] concerns Ebola virus. Conditions: cited from earlier work.
A further data set is described as follows: in vitro. Conditions: human.
The subject of data set [12] is Ebola virus. The conditions noted are these: Vero cells; cited from earlier work.
Data set [13] concerns Vero cells. The conditions noted are these: cited from earlier work.
The subject of a further data set is Hela cells. The conditions noted are these: cited from earlier work.
The test system of data set [14] is SARS-CoV-2. The data set is described as follows: Antiviral efficacy by immunofluorescence staining imaging, pretreatment, Vero cells. The conditions noted are these: 50 μM, pretreated 1 hour, 24 hours post-infection.
Setting [15] is: added at up to 6 hours post-infection.
[16] abbreviates: added at up to 12 hours post-infection.
[17] abbreviates: added at up to 24 hours post-infection.
[18] abbreviates: co-treatment, Vero cells, 24 hours after infection.

Some results are limits rather than exact numbers.

Consider `C[C@H]1[C@H](OC(=O)CCC(=O)O)O[C@@H]2O[C@@]3(C)CC[C@H]4[C@H](C)CC[C@@H]1[C@@]24OO3` [artesunate], for which the cytotoxicity result in the data set with Vero cells [1] is reported as “no significant cytotoxicity”. The inhibition at 12.5 µM with SARS-CoV-2 [2] (setting [15]) is 92 to 96%; in the data set on SARS-CoV-2 [2] (setting [16]), > 90%; in the data set on SARS-CoV-2 [2] (setting [17]), 48%. Further, in the data set with Ebola virus [3], the “antiviral efficacy against Ebola virus” value is given as “showed an antiviral efficacy”. In data set [4], the CC50 at 48 h was > 100 µM. In addition, the inhibition rate stood at 39% with SARS-CoV-2 [5] (3.13 μM, 48 hours post-infection, Vero cells); 40% in the data set on SARS-CoV-2 [5] (12.5 μM, 24 hours post-infection, Vero cells); 51% in the data set on SARS-CoV-2 [5] (12.5 μM, 48 hours post-infection, Vero cells). Also, in the data set on SARS-CoV-2 [5] (50 μM, Vero cells, co-treatment), the “inhibition rate against virus” value is listed as 83%. Also, the “selectivity index, SI” value in the data set with SARS-CoV-2 [6] is > 220.8. Also, the IC50 in the data set with SARS-CoV-2 [6] was 0.45 µM.
With `CCN(CC)CCCC(C)Nc1ccnc2cc(Cl)ccc12` (stereo not drawn) [chloroquine], the antiviral effect result with Ebola virus [7] is “did not show antiviral effect”.
In the case of `CCN(CCO)CCCC(C)Nc1ccnc2cc(Cl)ccc12` (stereo not drawn) [hydroxychloroquine], in the data set with SARS-CoV-2 [5] (monkey cell lines (Vero)), the “antiviral efficacy in the monkey cell lines” value is “showed antiviral efficacy”. In addition, the “antiviral effect in the human lung cell lines” value with SARS-CoV-2 [6] (at less than 50 μM) is “no antiviral effect”.
`COc1ccc2nc3cc(Cl)ccc3c(Nc3cc(CN4CCCC4)c(O)c(CN4CCCC4)c3)c2n1` [pyronaridine]: the inhibition at 12.5 µM with SARS-CoV-2 [2] (setting [15]) was > 99%; in the data set with SARS-CoV-2 [2] (setting [16]), > 94%; with SARS-CoV-2 [2] (setting [17]), 90%. Moreover, in the data set on SARS-CoV-2 [8], the “median infectious virus titer in the lung tissues” value was found to be 7.22 Log10 PFU. The “cytotoxicity increased by drug pretreatment” value in the data set on Vero cells [9] came out at 17%. For the same compound, the results for the EC50 in the data set on Ebola virus [10] and in the data set on SARS-CoV-2 [5] (setting [18]) were 0.42 to 1.12 µM and 8.27 µM, respectively. The “virus titer and survival rate” value in the data set on Ebola virus [11] (Ebola virus-challenged mouse models) is reported as “significantly improved”. Besides, in the data set with Ebola virus [11] (mouse models challenged with Ebola virus), the “mortality and viral infection rate” value is “significantly inhibited”. Moreover, in the data set “in vitro”, the CC50 at 48 h was > 100 µM. Besides, the “antiviral activity against Ebola virus at a concentration below CC50” value in the data set on Ebola virus [12] is recorded as “no antiviral activity”. The CC50 is 1.3 µM in the data set with Vero cells [13] and 3.1 µM with Hela cells. For the same compound, the virus inhibition rate in the data set on SARS-CoV-2 [14] is given as 70%. Further, the “selectivity index, SI” value is reported as > 1.40 with SARS-CoV-2 [5] (Vero cells, co-treatment) and > 11.66 in the data set on SARS-CoV-2 [6]. Further, the “inhibition at non-cytotoxic concentrations” value with SARS-CoV-2 [5] (setting [18]) is reported as “more than 90%”. Also, the concentration for half-maximal inhibition (IC50) in the data set with SARS-CoV-2 [6] amounted to 8.58 µM.

For orientation: inhibition means the change of the read-out against control, counted positive when it falls. The IC50 is the point on the concentration scale where inhibition reaches its midpoint. What is called EC50 is the concentration that produces a half-maximal response.

The record behind these values is patent US12485116B2, “Pharmaceutical composition for preventing or treating epidemic RNA viral infectious disease” (priority 2020, dated 2025).
